PubChem BioAssay (NCI)
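Cells were grown in 96-well plates and exposed to each compound for 48 hours at five concentrations; endpoints were interpolated linearly between bracketing concentrations, or set to the highest concentration if not reached. Abbreviation: GI50, concentration required for 50% inhibition of growth. TGI: total growth inhibition.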

How the values were obtained:
Experiment in all cases: growth of human tumour cells (NCI), 48 h
786-0 renal = test system: 786-0 renal
A498 renal = test system: A498 renal
A549 NSCLC = test system: A549 NSCLC
ACHN renal = test system: ACHN renal
BT-549 breast = test system: BT-549 breast
CAKI-1 renal = test system: CAKI-1 renal
CCRF-CEM leukemia = test system: CCRF-CEM leukemia
DU-145 prostate = test system: DU-145 prostate
EKVX NSCLC = test system: EKVX NSCLC
HCC-2998 colon = test system: HCC-2998 colon
HCT-116 colon = test system: HCT-116 colon
HCT-15 colon = test system: HCT-15 colon
HL-60(TB) leukemia = test system: HL-60(TB) leukemia
HOP-62 NSCLC = test system: HOP-62 NSCLC
HOP-92 NSCLC = test system: HOP-92 NSCLC
HS 578T breast = test system: HS 578T breast
HT29 colon = test system: HT29 colon
IGROV1 ovarian = test system: IGROV1 ovarian
K-562 leukemia = test system: K-562 leukemia
KM12 colon = test system: KM12 colon
LOX IMVI melanoma = test system: LOX IMVI melanoma
M14 melanoma = test system: M14 melanoma
MALME-3M melanoma = test system: MALME-3M melanoma
MCF7 breast = test system: MCF7 breast
MDA-MB-231 breast = test system: MDA-MB-231 breast
MDA-MB-435 = test system: MDA-MB-435
MOLT-4 leukemia = test system: MOLT-4 leukemia
NCI-H226 lung = test system: NCI-H226 lung
NCI-H23 lung = test system: NCI-H23 lung
NCI-H460 lung = test system: NCI-H460 lung
NCI-H522 lung = test system: NCI-H522 lung
NCI/ADR-RES ovarian = test system: NCI/ADR-RES ovarian
OVCAR-4 ovarian = test system: OVCAR-4 ovarian
OVCAR-5 ovarian = test system: OVCAR-5 ovarian
OVCAR-8 ovarian = test system: OVCAR-8 ovarian
PC-3 prostate = test system: PC-3 prostate
RPMI-8226 leukemia = test system: RPMI-8226 leukemia
RXF 393 renal = test system: RXF 393 renal
SF-268 CNS = test system: SF-268 CNS
SF-295 CNS = test system: SF-295 CNS
SF-539 CNS = test system: SF-539 CNS
SK-MEL-2 melanoma = test system: SK-MEL-2 melanoma
SK-MEL-28 melanoma = test system: SK-MEL-28 melanoma
SK-MEL-5 melanoma = test system: SK-MEL-5 melanoma
SK-OV-3 ovarian = test system: SK-OV-3 ovarian
SN12C renal = test system: SN12C renal
SNB-19 CNS = test system: SNB-19 CNS
SNB-75 CNS = test system: SNB-75 CNS
SR leukemia = test system: SR leukemia
SW-620 colon = test system: SW-620 colon
TK-10 renal = test system: TK-10 renal
U251 CNS = test system: U251 CNS
UACC-257 melanoma = test system: UACC-257 melanoma
UACC-62 melanoma = test system: UACC-62 melanoma
UO-31 renal = test system: UO-31 renal

`COc1ccccc1NC1=C(Cl)C(=O)c2nc(C)ccc2C1=O` gave a GI50 (786-0 renal) of 1.91 µM, a TGI (786-0 renal) of 3.61 µM and a GI50 (A498 renal) of 1.9 µM. It also gave a TGI (A498 renal) of 4.6 µM, a GI50 (A549 NSCLC) of 2.44 µM and a TGI (A549 NSCLC) of 6.24 µM. For the same compound, the GI50 (ACHN renal) was 1.47 µM, the TGI (ACHN renal) was 2.8 µM and the GI50 (BT-549 breast) was 1.72 µM. The TGI (BT-549 breast) was 3.27 µM, the GI50 (CAKI-1 renal) was 1.5 µM and the TGI (CAKI-1 renal) was 2.87 µM. The GI50 (CCRF-CEM leukemia) was 1.94 µM, the TGI (CCRF-CEM leukemia) was 8.21 µM and the GI50 (DU-145 prostate) was 1.72 µM. The TGI (DU-145 prostate) was 3.11 µM, the GI50 (EKVX NSCLC) was 1.61 µM and the TGI (EKVX NSCLC) was 3.05 µM. The GI50 (HCC-2998 colon) was 1.87 µM, the TGI (HCC-2998 colon) was 3.46 µM and the GI50 (HCT-116 colon) was 1.53 µM. It also gave a TGI (HCT-116 colon) of 4.16 µM, a GI50 (HCT-15 colon) of 1.33 µM and a TGI (HCT-15 colon) of 3.02 µM. For the same compound, the GI50 (HL-60(TB) leukemia) was 1.37 µM, the TGI (HL-60(TB) leukemia) was 3.52 µM and the GI50 (HOP-62 NSCLC) was 2.41 µM. It also gave a TGI (HOP-62 NSCLC) of 6.98 µM, a GI50 (HOP-92 NSCLC) of 1.85 µM and a TGI (HOP-92 NSCLC) of 3.3 µM. For the same compound, the GI50 (HS 578T breast) was 2.27 µM, the TGI (HS 578T breast) was 5.64 µM and the GI50 (HT29 colon) was 2.13 µM. For the same compound, the TGI (HT29 colon) was 4.49 µM, the GI50 (IGROV1 ovarian) was 1.46 µM and the TGI (IGROV1 ovarian) was 2.92 µM. The GI50 (K-562 leukemia) was 0.29 µM, the TGI (K-562 leukemia) was 2.94 µM and the GI50 (KM12 colon) was 1.49 µM. It also gave a TGI (KM12 colon) of 3.08 µM, a GI50 (LOX IMVI melanoma) of 0.952 µM and a TGI (LOX IMVI melanoma) of 2.36 µM. For the same compound, the GI50 (M14 melanoma) was 1.82 µM, the TGI (M14 melanoma) was 3.81 µM and the GI50 (MALME-3M melanoma) was 1.71 µM. It also gave a TGI (MALME-3M melanoma) of 3.19 µM, a GI50 (MCF7 breast) of 1.78 µM and a TGI (MCF7 breast) of 4.49 µM. For the same compound, the GI50 (MDA-MB-231 breast) was 1.19 µM, the TGI (MDA-MB-231 breast) was 2.53 µM and the GI50 (MDA-MB-435) was 1.7 µM. For the same compound, the TGI (MDA-MB-435) was 3.11 µM, the GI50 (MOLT-4 leukemia) was 2.27 µM and the TGI (MOLT-4 leukemia) was 8.6 µM. The GI50 (NCI-H226 lung) was 1.93 µM, the TGI (NCI-H226 lung) was 4.52 µM and the GI50 (NCI-H23 lung) was 1.47 µM. The TGI (NCI-H23 lung) was 3.31 µM, the GI50 (NCI-H460 lung) was 3.22 µM and the TGI (NCI-H460 lung) was 12 µM. The GI50 (NCI-H522 lung) was 1.81 µM, the TGI (NCI-H522 lung) was 3.36 µM and the GI50 (NCI/ADR-RES ovarian) was 2.03 µM. For the same compound, the TGI (NCI/ADR-RES ovarian) was 5.16 µM, the GI50 (OVCAR-4 ovarian) was 1.21 µM and the TGI (OVCAR-4 ovarian) was 2.49 µM. It also gave a GI50 (OVCAR-5 ovarian) of 1.86 µM, a TGI (OVCAR-5 ovarian) of 3.42 µM and a GI50 (OVCAR-8 ovarian) of 1.61 µM. For the same compound, the TGI (OVCAR-8 ovarian) was 3.25 µM, the GI50 (PC-3 prostate) was 1.21 µM and the TGI (PC-3 prostate) was 2.58 µM. The GI50 (RPMI-8226 leukemia) was 1.57 µM, the TGI (RPMI-8226 leukemia) was 4.61 µM and the GI50 (RXF 393 renal) was 1.42 µM. For the same compound, the TGI (RXF 393 renal) was 2.76 µM, the GI50 (SF-268 CNS) was 1.53 µM and the TGI (SF-268 CNS) was 3.05 µM. The GI50 (SF-295 CNS) was 1.85 µM, the TGI (SF-295 CNS) was 3.42 µM and the GI50 (SF-539 CNS) was 1.68 µM. For the same compound, the TGI (SF-539 CNS) was 3.13 µM, the GI50 (SK-MEL-2 melanoma) was 1.81 µM and the TGI (SK-MEL-2 melanoma) was 3.35 µM. It also gave a GI50 (SK-MEL-28 melanoma) of 1.85 µM, a TGI (SK-MEL-28 melanoma) of 3.34 µM and a GI50 (SK-MEL-5 melanoma) of 1.75 µM. For the same compound, the TGI (SK-MEL-5 melanoma) was 3.17 µM, the GI50 (SK-OV-3 ovarian) was 12.6 µM and the TGI (SK-OV-3 ovarian) was 27.5 µM. For the same compound, the GI50 (SN12C renal) was 1.7 µM, the TGI (SN12C renal) was 3.29 µM and the GI50 (SNB-19 CNS) was 1.81 µM. For the same compound, the TGI (SNB-19 CNS) was 3.72 µM, the GI50 (SNB-75 CNS) was 1.5 µM and the TGI (SNB-75 CNS) was 2.84 µM. The GI50 (SR leukemia) was 0.794 µM, the TGI (SR leukemia) was 4.25 µM and the GI50 (SW-620 colon) was 1.84 µM. It also gave a TGI (SW-620 colon) of 3.73 µM, a GI50 (TK-10 renal) of 2.34 µM and a TGI (TK-10 renal) of 3.86 µM. The GI50 (U251 CNS) was 1.85 µM, the TGI (U251 CNS) was 3.73 µM and the GI50 (UACC-257 melanoma) was 1.57 µM. For the same compound, the TGI (UACC-257 melanoma) was 3.09 µM, the GI50 (UACC-62 melanoma) was 1.82 µM and the TGI (UACC-62 melanoma) was 3.37 µM. It also gave a GI50 (UO-31 renal) of 1.42 µM and a TGI (UO-31 renal) of 2.73 µM.
